Measured values taken from publication PMC6920962, “Unravelling the Skin Secretion Peptides of the Gliding Leaf Frog, Agalychnis spurrelli (Hylidae)” (Biomolecules, 2019).
≈ marks a conversion by molar mass, not a printed value. Where “and” joins values, the source holds several entries; their conditions need not be identical. Identical values can stand only once. Like-named read-outs stand apart in the source and are kept apart here. Marks after values point to notes of the source that are not given here. Ends that are not written are not given here.

Experiments:
red blood cells = assay type: cell-based
Method: Aiming to determine the toxicity of frog peptides to red blood cells, in vitro assays were performed with different concentrations of each peptide. The diluted peptides (employing the same concentrations than for the antimicrobial assay described above) were incubated with a suspension of red blood cells (2%) (7.7 × 10^6 ± 0.3 × 10^6 cells/mL) at a ratio of 1:1 (v/v), in a total volume of 400 µL for 2 h at 37 °C. After the incubation period, the cells were centrifuged at 3000 rpm for 5 min and transferred to a 96 well plates. The haemolytic activity was monitored at 550 nm and was performed in triplicate. PBS and 2% (v/v) Triton X-100 were used as negative and positive controls, respectively.

[1] = system: Escherichia coli ATCC 25922; conditions: ATCC 25922, 18 h
Method: (§1) For the in vitro evaluation of antimicrobial potentials of new biochemical structures identified herein, five synthetic peptides were purchased from a commercial supplier (Biomatik). Approximately 100 mg of each peptide was synthetized by Fmoc technology. […] The lyophilized peptides were kept at −20 °C and diluted in dimethyl sulfoxide (DMSO) before the antimicrobial assays, which were performed according to broth microdilution methodology detailed by Proaño et al.. Minimal inhibitory concentration of the synthetic peptides was determined against the following Gram-positive bacteria: Staphylococcus aureus ATCC 25923 and S. aureus oxacillin resistant strain; Gram-negative bacteria: Escherichia coli ATCC 25922 and Klebsiella pneumonia clinical isolate; and the opportunistic pathogenic yeast Candida albicans. Briefly, peptides were dissolved in DMSO at the following concentrations: 512, 256, 128, 64, 32, 16, 8, 4, 2, 1 […] mg/L. Each bacteria/yeast was cultured until reach log phase and then it was diluted to obtain 1 × 10^6 CFU/mL for bacteria and 1 × 10^5 CFU/mL for the yeast. Assays were prepared in 96 well sterile plates where 198 µL of each microorganism was challenged with 2 μL of the diluted peptides at the serial dilutions mentioned above. […] Another control included 200 μL of Muller Hinton broth without microorganisms to be used as blank with no growth. Seven replicates per peptide concentration was employed and experiments were performed in triplicates. […] MIC was determined as the minimal concentration of peptide required to inhibit the growth of >95% of microbial growth.

[2] = system: Klebsiella pneumonia clinical isolate
Method: as §1

[3] = system: Staphylococcus aureus ATCC 25923; conditions: ATCC 25923, 18 h
Method: as §1

Candida albicans [4] = conditions: 18 h
Method: as §1

[5] = system: Escherichia coli ATCC 25922; set-up: method as in 6 sources, ref Cuesta et al., 2019 (41) ||| ref Charpantier, et al., 1998 (39) ||| ref Raja et al., 2013 (40) ||| ref Reimer et al., 1981 (42) ||| ref 20, 22 = [20]; PMID 17561225; doi:10.1016/j.toxicon.2007.04.017; 20. Conlon J.M. Woodhams D.C. Raza H. Coquet L. Leprince J. Jouenne T. Vaudry H. Rollins-Smith L.A. Peptides with Differential Cytolytic Activity from Skin Secretions of the Lemur Leaf Frog Hylomantis || [22]; PMID 23415652; doi:10.1016/j.biochi.2013.02.005; 22. Xi X. Li R. Jiang Y. Lin Y. Wu Y. Zhou M. Xu J. Wang L. Chen T. Shaw C. Medusins: A New Class of Antimicrobial Peptides from the Skin Secretions of Phyllomedusine Frogs Biochimie 2013 95 1288 1296 ||| ...; conditions: cited from earlier work
[6] = system: Staphylococcus aureus ATCC 25923; set-up: method as in 4 sources, ref Cuesta et al., 2019 (41) ||| ref Charpantier, et al., 1998 (39) ||| ref Raja et al., 2013 (40) ||| ref Reimer et al., 1981 (42); conditions: cited from earlier work
[7] = system: S. aureus Oxacillin Resistant (ORSA Strain 20)
Method: as §1

Candida albicans [8] = system: Candida albicans; set-up: method as in Cuesta et al., 2019 (41); conditions: broth microdilution; ref Cuesta et al., 2019 (41); cited from earlier work
Method: In this work, skin secretion from this amphibian was analysed by molecular cloning and tandem mass spectrometry.

[9] = cited from earlier work
P. aeruginosa = conditions: cited from earlier work
[10] = broth microdilution, ref Cuesta et al., 2019 (41)
[11] = broth microdilution, ref Cuesta et al., 2019 (41), listed as dermaseptin-2
[12] = broth microdilution, 1 × 10^6 CFU/mL, 37 °C 18 h, OD 600 nm, MIC = >95% growth inhibition, seven replicates, triplicate experiments
[13] = ref Charpantier, et al., 1998 (39)
[14] = ref Reimer et al., 1981 (42), listed as ampicillin

For “FLSLIPHVISAIPHVVNALSNL-NH2 [Phylloseptin-SP1]”, the “Toxicity to red blood cells compared with the dermaseptins” value (red blood cells) was “greater toxicity to red blood cells than did the dermaseptins”, the “MIC E. coli ATCC 25922” value [1] was greater than 217.69 µM and the “MIC K. pneumoniae Clinical Isolate” value ([2]; 18 h) was greater than 189.00 µM. The “MIC S. aureus ATCC 25923” value [3] was greater than 217.69 µM and the “MIC C. albicans” value (Candida albicans [4]) was greater than 217.69 µM.

In the case of “SLWSSIKDMAAAAGRAALNAVNGILNP-NH2 [Dermaseptin-SP4]”, the “MIC K. pneumoniae Clinical Isolate” value ([2]; 18 h) is reported as 189.00 µM.

For “ASWKVFLKNIGKAAGKAVLNSVTDMVNQ-NH2 [Dermaseptin-SP2]”, the “MIC E. coli ATCC 25922” value [5, 10] is listed as 2.68 µM, the “MIC E. coli ATCC 25922” value [5, 11] is listed as 2.68 µM and the “MIC S. aureus ATCC 25923” value [6, 10] is listed as 2.68 µM. The “MIC S. aureus ATCC 25923” value [6, 11] was 2.68 µM, the “MIC K. pneumoniae Clinical Isolate” value ([2]; 18 h) was 10.71 µM and the “MIC K. pneumoniae Clinical Isolate” value [2, 12] was 32 µg/mL. For the same compound, the “MIC S. aureus Oxacillin Resistant (ORSA Strain 20)” value (shortened to “MIC S. aureus Oxacillin Resistant”) ([7]; Oxacillin Resistant (ORSA Strain 20, 18 h)) was 2.68 µM, the “MIC S. aureus Oxacillin Resistant” value [7, 12] was 8 µg/mL and the “MIC S. aureus Oxacillin Resistant” value ([7]; broth microdilution, 1 × 10^6 CFU/mL, 37 °C 18 h, OD 600 nm, MIC = >95% growth inhibition, seven replicates, triplicate experiments, listed as dermaseptin-2) was 2.68 µM. The “MIC C. albicans” value (Candida albicans [8]) was 10.71 µM.

In the case of “FLSLIPHIVSGVASIAKHFG [Phyloseptin-S1, phylloseptin of P. sauvagii]”, the “MIC E. coli ATCC 25922” value ([5]; ref Raja et al., 2013 (40)) is listed as 70.00 *** μM and the “MIC S. aureus ATCC 25923” value ([6]; ref Raja et al., 2013 (40)) is listed as 6.25 *** μM.

In the case of “ALWKDILKNVGKAAGKAVLNTVTDMVNQ-NH2 [Dermaseptin-B4]”, the “MIC E. coli ATCC 25922” value [5, 13] is given as 5.00 ** μM, the “Concentration at which cytotoxicity was exhibited” value [9] is given as 12 µM and the “MIC S. aureus ATCC 25923” value [6, 13] is given as 3.00 ** μM. For the same compound, the “MIC S. aureus ATCC 25923” value ([6]; ref Charpantier, et al., 1998 (39), listed as DRS-B4) was 3 µM and the “MIC P. aeruginosa” value (P. aeruginosa) was 4.6 to 11.6 µM.

In the case of “SLRSSIKDMAAAAGRAALNAVNGIVNP-NH2 [Dermaseptin-SP5, novel dermaseptin of A. spurrelli, synthetic amidated peptide]”, the “MIC E. coli ATCC 25922” value [5, 10] is given as 96.06 μM and 256 mg/L, the “MIC S. aureus ATCC 25923” value [6, 10] is given as > 192.12 μM and > 512 mg/L and the “MIC C. albicans” value (Candida albicans [8]) is given as 384.24 μM and 1024 mg/L.

In the case of “ALWKTMLKKLGTMALHAGKAALGAAADTISQGTQ [Dermaseptin-S1, dermaseptin of Phyllomedusa sauvagii]”, the “MIC E. coli ATCC 25922” value [5, 13] is given as 46 μM and 46.00 ** μM and the “MIC S. aureus ATCC 25923” value [6, 13] is given as 60.00 ** μM.

In the case of `CC1(C)S[C@@H]2[C@H](NC(=O)[C@H](N)c3ccccc3)C(=O)N2[C@H]1C(=O)O` [Ampicillin], the “MIC E. coli ATCC 25922” value ([5]; ref Reimer et al., 1981 (42)) is given as 6.0 **** μM, the “MIC E. coli ATCC 25922” value [5, 14] is given as 6 µM (≈ 2.1 µg/mL) and the “MIC S. aureus ATCC 25923” value ([6]; ref Reimer et al., 1981 (42)) is given as 0.1 **** μM. For the same compound, the “MIC S. aureus ATCC 25923” value [6, 14] was 0.1 µM (≈ 0.0349 µg/mL).

With “SLWSSIKDMAAAAGRAALNAVNGIVNP-NH2 [Dermaseptin-SP3]” the “MIC K. pneumoniae Clinical Isolate” value ([2]; 18 h) was greater than 189.98 µM.
